# In ChEMBL document CHEMBL1153084, “Synthesis and HMG-CoA reductase inhibition of 2-cyclopropyl-4-thiophenyl-quinoline mevalonolactones” (Bioorg Med Chem, 2009):
# Target: T1, 3-hydroxy-3-methylglutaryl-coenzyme A reductase (Homo sapiens, UniProt P04035)
# T1 sequence (P04035 whole entry): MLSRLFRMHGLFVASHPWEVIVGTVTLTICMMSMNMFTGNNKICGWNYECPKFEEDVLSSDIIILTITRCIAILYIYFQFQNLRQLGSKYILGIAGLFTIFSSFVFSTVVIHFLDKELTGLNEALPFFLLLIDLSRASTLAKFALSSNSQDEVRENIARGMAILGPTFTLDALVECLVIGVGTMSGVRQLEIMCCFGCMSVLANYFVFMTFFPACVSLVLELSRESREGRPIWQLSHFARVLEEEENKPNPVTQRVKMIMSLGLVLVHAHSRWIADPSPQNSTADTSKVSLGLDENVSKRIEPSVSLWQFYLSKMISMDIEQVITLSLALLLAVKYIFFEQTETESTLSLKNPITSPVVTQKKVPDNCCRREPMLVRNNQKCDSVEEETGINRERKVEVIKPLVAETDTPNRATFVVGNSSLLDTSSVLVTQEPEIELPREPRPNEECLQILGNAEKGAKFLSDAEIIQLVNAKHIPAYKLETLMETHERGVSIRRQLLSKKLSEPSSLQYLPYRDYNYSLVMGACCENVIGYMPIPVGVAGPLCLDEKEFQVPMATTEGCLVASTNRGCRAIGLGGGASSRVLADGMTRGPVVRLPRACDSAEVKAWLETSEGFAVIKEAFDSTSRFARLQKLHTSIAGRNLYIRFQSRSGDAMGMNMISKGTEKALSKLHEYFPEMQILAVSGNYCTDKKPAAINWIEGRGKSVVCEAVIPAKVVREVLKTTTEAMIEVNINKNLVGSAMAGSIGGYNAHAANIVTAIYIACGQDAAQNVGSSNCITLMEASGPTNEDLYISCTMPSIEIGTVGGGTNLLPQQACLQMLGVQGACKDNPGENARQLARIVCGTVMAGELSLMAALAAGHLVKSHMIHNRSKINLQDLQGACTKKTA
# Assay: Inhibition of HMG CoA reductase by spectrophotometry
row,Compound,IC50 [µM]
1,CC(C)c1ccc(Sc2c(/C=C/[C@@H]3C[C@@H](O)CC(=O)O3)c(C3CC3)nc3cc(F)c(F)cc23)cc1,759
2,COc1ccc2nc(C3CC3)c(/C=C/[C@@H]3C[C@@H](O)CC(=O)O3)c(Sc3ccc(F)cc3)c2c1,25.7
3,CC(C)c1ccc(Sc2c(/C=C/[C@@H]3C[C@@H](O)CC(=O)O3)c(C3CC3)nc3ccccc23)cc1,11.3
4,O=C1C[C@H](O)C[C@@H](/C=C/c2c(C3CC3)nc3ccc(F)cc3c2Sc2ccc(F)cc2)O1,6.93
5,O=C1C[C@H](O)C[C@@H](/C=C/c2c(C3CC3)nc3ccccc3c2Sc2ccc(F)cc2)O1,62.4
6,COc1ccc2nc(C3CC3)c(/C=C/[C@@H]3C[C@@H](O)CC(=O)O3)c(Sc3ccc(C(C)C)cc3)c2c1,41.3
7,O=C(O)C[C@H](O)C[C@H](O)/C=C/c1c(C2CC2)nc2ccccc2c1-c1ccc(F)cc1 [PITAVASTATIN CALCIUM],8.9
8,COc1cccc(Sc2c(/C=C/[C@@H]3C[C@@H](O)CC(=O)O3)c(C3CC3)nc3ccc(F)cc23)c1,5.61
9,COc1cccc(Sc2c(/C=C/[C@@H]3C[C@@H](O)CC(=O)O3)c(C3CC3)nc3cc(F)c(F)cc23)c1,360
10,COc1cccc(Sc2cc3nc(C4CC4)c(/C=C/[C@@H]4C[C@@H](O)CC(=O)O4)c(Sc4cccc(OC)c4)c3cc2F)c1,7.1
11,O=C1C[C@H](O)C[C@@H](/C=C/c2c(C3CC3)nc3cc(Sc4ccc(F)cc4)c(F)cc3c2Sc2ccc(F)cc2)O1,45.7
